The target in one assay is 5HT1D receptor. The assay is described as follows: Inhibition of 3H-serotonin binding to 5HT1D receptor. More on the design: species or system male Sprague-Dawley rats. As to conditions: rat brain membranes, 25 °C, 30 min, pH 7.4, read-out: Inhibition of Radioligand Binding to 5HT Receptor 1D (IC50). How it is done:
(§1) Radioactivity was measured with a liquid scintillation spectrometer.

The target of the next assay is T1, 5HT1B receptor (Rattus norvegicus, UniProt P28564).
T1 construct: membranes isolated from bovine choroid plexus (for 5HT1.sbsb.c) or rat brain; from tissue
T1 sequence (P28564 whole entry): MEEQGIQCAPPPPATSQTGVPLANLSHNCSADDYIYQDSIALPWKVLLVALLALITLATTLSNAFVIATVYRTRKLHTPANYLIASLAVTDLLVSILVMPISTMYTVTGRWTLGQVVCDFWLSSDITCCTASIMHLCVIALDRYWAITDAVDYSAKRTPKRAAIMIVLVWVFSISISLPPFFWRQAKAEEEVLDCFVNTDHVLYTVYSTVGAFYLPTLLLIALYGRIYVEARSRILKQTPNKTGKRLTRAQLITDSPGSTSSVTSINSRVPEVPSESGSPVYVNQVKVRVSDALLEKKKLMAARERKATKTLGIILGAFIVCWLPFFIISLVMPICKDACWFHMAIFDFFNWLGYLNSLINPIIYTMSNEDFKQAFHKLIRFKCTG
The assay is described as follows: Inhibition of 3H-serotonin binding to 5HT1B receptor. Details: species or system male Sprague-Dawley rats. How it is done: as §1

A further assay has as its target T2, 5HT1C receptor (Bos taurus, UniProt A0AAA9SBU1).
T2 sequence (A0AAA9SBU1 33-457): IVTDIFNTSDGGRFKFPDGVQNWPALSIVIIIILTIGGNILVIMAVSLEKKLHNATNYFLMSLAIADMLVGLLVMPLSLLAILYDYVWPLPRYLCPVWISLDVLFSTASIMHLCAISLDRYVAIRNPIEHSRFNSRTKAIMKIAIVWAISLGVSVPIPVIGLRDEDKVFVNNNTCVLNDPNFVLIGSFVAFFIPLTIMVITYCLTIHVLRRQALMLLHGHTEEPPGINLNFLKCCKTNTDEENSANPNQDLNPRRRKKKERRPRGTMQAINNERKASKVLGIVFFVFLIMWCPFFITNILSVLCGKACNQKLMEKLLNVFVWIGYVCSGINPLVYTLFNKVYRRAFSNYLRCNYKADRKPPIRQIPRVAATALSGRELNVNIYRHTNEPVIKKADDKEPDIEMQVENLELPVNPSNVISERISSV
Put plainly: Inhibition of 3H-mesulergine binding to 5HT1C receptor. How it is done:
as §1

Another assay addresses 5HT2 receptor (Rattus norvegicus, UniProt P14842). The assay is described as follows: biochemical. How it is done: Binding was terminated by filtering samples under reduced pressure through glass fiber (GFB) filters. […] Radioactivity was measured with a liquid scintillation spectrometer.
In another assay the target is T3, 5HT1A receptor (Rattus norvegicus, UniProt P19327).
T3 construct: membranes isolated from bovine choroid plexus (for 5HT1.sbsb.c) or rat brain; from tissue
T3 sequence (P19327 1-422): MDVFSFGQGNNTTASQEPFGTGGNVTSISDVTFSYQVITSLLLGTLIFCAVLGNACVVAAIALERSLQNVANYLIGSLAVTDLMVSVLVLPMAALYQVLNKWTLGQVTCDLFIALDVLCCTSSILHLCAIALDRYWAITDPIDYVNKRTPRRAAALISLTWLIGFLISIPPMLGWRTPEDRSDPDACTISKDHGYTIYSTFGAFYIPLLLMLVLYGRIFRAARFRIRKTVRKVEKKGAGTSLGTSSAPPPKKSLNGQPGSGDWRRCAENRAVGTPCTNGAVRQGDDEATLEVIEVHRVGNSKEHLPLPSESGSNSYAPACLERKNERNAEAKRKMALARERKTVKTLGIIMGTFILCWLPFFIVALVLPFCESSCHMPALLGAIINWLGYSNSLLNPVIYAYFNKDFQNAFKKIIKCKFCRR
The assay is described as follows: Inhibition of 3H-8-hydroxy-2-(di-n-propylamino)tetralin binding to 5HT1A receptor. Details: species or system male Sprague-Dawley rats. How it is done: as §1

Structures are written as SMILES. Where a name gives a salt, the structure may show the parent alone. Read-outs that look alike come from different tables or passages of the source.

5HT2 receptor, sequence (P14842 whole entry): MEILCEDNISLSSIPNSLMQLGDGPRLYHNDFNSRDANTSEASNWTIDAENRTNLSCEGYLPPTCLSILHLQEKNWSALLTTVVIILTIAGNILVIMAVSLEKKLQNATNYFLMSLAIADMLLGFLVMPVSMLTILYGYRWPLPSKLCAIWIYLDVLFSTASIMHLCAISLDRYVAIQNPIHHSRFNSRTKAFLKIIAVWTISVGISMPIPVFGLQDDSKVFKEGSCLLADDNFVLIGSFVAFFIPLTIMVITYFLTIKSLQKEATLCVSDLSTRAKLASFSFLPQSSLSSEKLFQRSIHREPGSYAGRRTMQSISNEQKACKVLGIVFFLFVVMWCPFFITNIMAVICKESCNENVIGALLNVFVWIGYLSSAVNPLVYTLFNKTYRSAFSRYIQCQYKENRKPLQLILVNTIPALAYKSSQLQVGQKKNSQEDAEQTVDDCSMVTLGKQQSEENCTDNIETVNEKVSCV

As usually defined, the IC50 is the concentration needed to halve the response being measured. Consider `CC(=O)N[C@H]1CC[C@H](NC(=O)[C@@H]2C[C@@H]3c4cccc5c4c(cn5C(C)C)C[C@H]3N(C)C2)CC1` (relative stereo) [Example 1, (8β)-N-(trans-4-acetamidocyclohexyl)-1-isopropyl-6-methylergoline-8-carboxamide], for which the IC50 on 5HT1D receptor was 198 nM; at 5HT1B receptor (rat brain membranes, 3H-serotonin, 25 °C, 30 min, pH 7.4, read-out: Inhibition of Radioligand Binding to 5HT Receptor 1B (IC50)) it was more than 1000 nM; on 5HT1C receptor (read-out: Inhibition of Radioligand Binding to 5HT Receptor 1C (IC50); bovine choroid plexus membranes; 2 nM 3H-mesulergine; 25 °C, 30 min, pH 7.4), 18 nM; against 5HT2 receptor it was 31 nM; on 5HT1A receptor (rat brain membranes, 3H-8-hydroxy-2-(di-n-propylamino)tetralin, 25 °C, 30 min, pH 7.4, read-out: Inhibition of Radioligand Binding to 5HT Receptor 1A (IC50)), 2310 nM.

For `CC(C)n1cc2c3c(cccc31)[C@H]1C[C@@H](C(=O)N[C@H]3CC[C@H](NS(C)(=O)=O)CC3)CN(C)[C@@H]1C2` (relative stereo) [Example 2, (8β)-N-(trans-4-methylsulfonamidocyclohexyl)-1-isopropyl-6-methylergoline-8-carboxamide maleate], the IC50 on 5HT1D receptor was 276 nM; on 5HT1B receptor it was 489 nM; on 5HT1C receptor (bovine choroid plexus membranes; 2 nM 3H-mesulergine; 25 °C, 30 min, pH 7.4; read-out: Inhibition of Radioligand Binding to 5HT Receptor 1C (IC50)) it was 22 nM; at 5HT2 receptor, 23 nM; at 5HT1A receptor, 2650 nM.

(Values after patent US5739146A, “Substituted cyclo or bicycloalkylamides of (8β)-6-(substituted) ergolines” (Eli Lilly and Company, priority 1995, dated 1998).)
